The results in this text go back to patent US9522260B2, “Apparatus for the controlled release of topical nitric oxide” (University of Windsor, priority 2011, dated 2016).

The series is described as follows: Thermal and storage stability of AuNP nanocomposites and SNOG. Format: physicochemical. The protocol: All of the AuNP-nanocomposites i) to iv) as well as SNOG solutions 1 mM, dissolved in distilled deionized water and containing 100 μM diethylenetriaminepentaacetic acid (DPTA) a metal chelator were stored at 5° C., 25° C. and 55° C. for 1 month. These components were then added to the testing apparatus 90 (FIG. 3) and their NO-release characteristics were compared to fresh samples.
In one simplest and most cost effective manner to prepare an AuNP-nanocomposite, cotton gauze with AuNP (˜10 nm) is prepared by a conventional citrate reduction method.
SNOG solutions (1 mM) containing DPTA (0.1 mm) decomposed ˜5% upon incubation at 40° C. for 7 days. Stability of the SNOG may be increased further by either suspending it in polyethylene glycol or dissolving it in glycerol.

Turning to `N[C@@H](CCC(=O)N[C@@H](CSN=O)C(=O)NCC(=O)O)C(=O)O` [SNOG, S-nitrosoglutathione], the “decomposition of SNOG solution” value (SNOG solutions (1 mM) containing DPTA (0.1 mm), incubation at 40° C. for 7 days) was approximately 5%. For the same compound, the “thermal stability of solid SNOG” value (solid, storage at 40° C. for one week, preliminary experiments) is “thermally stable”.
